Laboratory results published in patent publication US10023591B2, “Heterocyclic derivatives and use thereof” (C&C RESEARCH LABORATORIES, priority 2014, dated 2018).

Experiments:
[1] = tested on: MDA-MB-468 breast cancer cell line; assay: Cell growth inhibition assay, MDA-MB-468 (CellTiter-Glo); format: cell-based; conditions: Homo sapiens, MDA-MB-468, 96 hours
Description: The inhibitory effects of the compounds of the present invention against the growth of cancer cells were evaluated as shown below. The cancer cell lines including prostate cancer cell lines (LNCaP, DU-145), stomach cancer cell line (NCI-N87), and breast cancer cell lines (MDA-MB-468) were cultured under the protocol provided by each supplier. A medium supplemented with 10 ng/mL of IL-6 was used for LNCaP, a prostate cancer cell line, when treated with a drug. Each type of cells to be used in experiments was sub-cultured in a 96-well plate by counting the exact number of cells using Tali™ Image-based Cytometer (Life Technologies). In a 96-well plate, DU-145 was employed with 3,000 cells/well; NCI-N87 was employed with 5,000 cells/well; and LNCaP and MDA-MB-468 were employed with 10,000 cells/well. The cells were treated with the compounds listed in Examples which were diluted in various concentrations. Upon completion of the compounds treatment, LNCaP, DU-145, NCI-N87 cells were cultured at 37° C. under 5% CO2 for 96 hours, and MDA-MB-468 cells were cultured at 37° C. in air for 96 hours. Subsequently, the cells were observed under microscope and drug precipitation and particular findings were investigated and recorded. And then, the 96-well plate was placed at room temperature for 30 minutes, added with 20 pt/well of CellTiter-Glo solution (Cat No. G7573, Promega) and shaken for 10 minutes, followed by being subjected to the measurement using PHERAstar™ microplate reader (BMG LABTECH) according to the supplier's general luminometer protocol. Wells where only culture liquid added without cell plating were used as a negative control, whereas wells where culture liquid containing 0.1% DMSO instead of the compounds listed in Examples were used as a positive control.

[2] = tested on: NCI-N87 stomach cancer cell line; assay: Cell growth inhibition assay, NCI-N87 (CellTiter-Glo); format: cell-based; conditions: Homo sapiens; NCI-N87, 5,000 cells/well, 96 hours
How it was run: (§1)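 Cells seeded at 3,000 (DU-145), 5,000 (NCI-N87) or 10,000 (LNCaP, MDA-MB-468) per well, LNCaP in medium with 10 ng/mL IL-6. Serially diluted compound for 96 h at 37 °C (MDA-MB-468 in air, others 5% CO2); viability by CellTiter-Glo luminescence versus 0.1% DMSO wells.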

STAT3 = STAT3 reporter gene assay (luciferase), LNCaP stable cell line pSTAT3-TA-luc, IL-6 stimulation; format: cell-based, human; conditions: Homo sapiens
How it was run: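 LNCaP cells stably carrying pSTAT3-TA-luc were plated 24 h in 3% DCC-FBS medium, then given compound followed by IL-6 (10 ng/mL final) for 24 h at 37 °C. Luciferase was read from lysates, with CellTiter-Glo viability on a duplicate plate. Stimulated 0.1% DMSO wells served as uninhibited control.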

[3] = tested on: LNCaP prostate cancer cell line; assay: Cell growth inhibition assay, LNCaP (CellTiter-Glo); format: cell-based; conditions: Homo sapiens; LNCaP, 10,000 cells/well, medium with 10 ng/mL IL-6, 96 hours
How it was run: as §1

[4] = tested on: DU-145 prostate cancer cell line; assay: Cell growth inhibition assay, DU-145 (CellTiter-Glo); format: cell-based; conditions: Homo sapiens; DU-145, 3,000 cells/well, 96 hours
How it was run: as §1

STAT1 = STAT1 reporter gene assay (luciferase), U2OS stable cell line pGL4-STAT1-TA-luc, IFN-γ stimulation; format: cell-based, human; conditions: Homo sapiens, IFN-γ 50 ng/mL, 8 hours, read-out: IC50 (μM) pSTAT1
How it was run: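 U2OS cells stably carrying a STAT1-driven luciferase reporter were treated with serially diluted compounds plus IFN-γ (50 ng/mL final) for 8 h at 37 °C in 10% FBS medium. Luciferase read after lysis; parallel plate assessed for cytotoxicity by CellTiter-Glo.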

IC50 [1]: 0.0065 µM
IC50 [2]: 0.034 µM
IC50 (STAT3): 0.021 µM
IC50 [3]: 0.013 µM
IC50 [4]: 0.0057 µM
IC50 (STAT1): > 50 µM
SMILES: CC(C)(c1ccc2sc(C(=O)Nc3cc(Cl)nc(Oc4ccc(Cl)cc4)c3)cc2c1)S(C)(=O)=O [Example 64, N-(2-chloro-6-(4-chlorophenoxy)pyridin-4-yl)-5-(2-(methylsulfonyl)propan-2-yl)benzo[b]thiophene-2-carboxamide]
